“And” between values parts separate entries of the source, which are not always exact repeats. Equal values may be shown once. Read-outs that look alike come from different tables or passages of the source.
Key:
[1] = system: Herpes Simplex type 1 virus (HFEM strain); test: plaque reduction assay in Vero cells infected with Herpes Simplex type 1 virus; assay type: cell-based
Experimental: (§1) Vero (African Green Monkey Kidney) cells were grown to confluence in 24 well multidishes, each well being 1.6 cm in diameter. The cells were infected with Herpes Simplex type 1 virus (HFEM strain) and overlaid with 0.5 mL of 0.9% agarose (w/v) in maintenance medium in concentrations ranging from 100 to 0.03 µg/ml in half-log dilution steps, were added in 0.5 mL volume. The virus infected cultures were then incubated at 37 °C for 4 days before fixing in 4% formaldehyde solution and staining with carbolfuchsin.

[2] = cytotoxicity (minimum toxic concentration) in the infected Vero cell cultures; assay type: cell-based, African Green Monkey; settings: monkey; minimum concentration of test compound which caused cytotoxicity; Vero cells, highest concentration tested 100 µg/ml; read-out: MTD
Experimental: as §1

[3] = system: Vero (African Green Monkey Kidney) cells; test: as above; assay type: cell-based; settings: vero cells, 96 h
Experimental: as §1

[4] = Human alphaherpesvirus 1, 96 h, concentration causing 50% reduction in number of virus plaques, Vero cells, HSV-1 HFEM strain, 4 days at 37 C, read-out: PDD50 (the source's name)
[5] = Human alphaherpesvirus 1, 96 h, same PD50 expressed in µM, Vero cells, HSV-1 HFEM strain, 4 days at 37 C, read-out: PDD50 (the source's name)
[6] = Human alphaherpesvirus 1, Vero, 96 h, read-out: PDD50
[7] = concentration causing 50% reduction in number of virus plaques, Vero cells, HSV-1 HFEM strain, 4 days at 37 C
[8] = same PD50 expressed in µM, Vero cells, HSV-1 HFEM strain, 4 days at 37 C, read-out: PDD50 (the source's name)

| Compound | EC50 [1, 4] [µg/mL] | EC50 [1, 5] [µM] | MCC at 96 h [2] [µg/mL] | EC50 [1, 6] | PDD50 [1, 7] [µg/mL] | EC50 [1, 8] [µM] | MTD [3] [µg/mL] |
| --- | --- | --- | --- | --- | --- | --- | --- |
| O=C(CCl)OC[C@H]1O[C@@H](n2cc(/C=C/Br)c(=O)[nH]c2=O)C[C@@H]1OC(=O)CCl [Example 1, E-5-(2-Bromovinyl)-3',5'-bis (chloroacetyl)-2'-deoxyuridine] | 0.14 | 0.29 | > 100 | – | – | – | – |
| O=C(CCl)OC[C@H]1O[C@@H](n2cc(/C=C/Br)c(=O)[nH]c2=O)C[C@@H]1O [Example 2, E-5-(2-Bromovinyl)-5'-chloroacetyl-2'-deoxyuridine] | 0.12 | 0.29 | > 100 | – | – | – | – |
| CC(Cl)C(=O)OC[C@H]1O[C@@H](n2cc(/C=C/Br)c(=O)[nH]c2=O)C[C@@H]1OC(=O)C(C)Cl (stereo partly drawn) [Example 4] | 0.14 | 0.27 | > 100 | – | – | – | – |
| CC(Cl)C(=O)OC[C@H]1O[C@@H](n2cc(/C=C/Br)c(=O)[nH]c2=O)C[C@@H]1O (stereo partly drawn) [Example 5] | 0.14 | 0.33 | > 100 | – | – | – | – |
| CCCN(CCC)S(=O)(=O)c1ccc(C(=O)OCC(=O)OC[C@H]2O[C@@H](n3cc(/C=C/Br)c(=O)[nH]c3=O)C[C@@H]2OC(=O)COC(=O)c2ccc(S(=O)(=O)N(CCC)CCC)cc2)cc1 [Example 6, E-5-(2-Bromovinyl)-3',5'-Bis (4-dipropylsulphamoylbenzoyloxyacetyl)-2'-deoxyuridine] | 2.03 | 2.06 | > 100 | – | – | – | – |
| CCCN(CCC)S(=O)(=O)c1ccc(C(=O)OCC(=O)OC[C@H]2O[C@@H](n3cc(/C=C/Br)c(=O)[nH]c3=O)C[C@@H]2O)cc1 [Example 7, E-5-(2 Bromovinyl)-5'-(4-dipropylsulphamoylbenzoyloxyacetyl)-2'-deoxyuridine] | 0.24 | 0.37 | > 100 | – | – | – | – |
| CCCN(CCC)S(=O)(=O)c1ccc(C(=O)OCC(=O)O[C@H]2C[C@H](n3cc(/C=C/Br)c(=O)[nH]c3=O)O[C@@H]2CO)cc1 [Example 8, E-5-(2-Bromovinyl)-3'-(4-dipropylsulphanoylbenzoyloxyacetyl)-2'-deoxyuridine] | 0.22 | 0.33 | > 100 | – | – | – | – |
| CC(C)(Oc1ccc(Cl)cc1)C(=O)OCC(=O)OC[C@H]1O[C@@H](n2cc(/C=C/Br)c(=O)[nH]c2=O)C[C@@H]1OC(=O)COC(=O)C(C)(C)Oc1ccc(Cl)cc1 [Example 9, E-5-(2 Bromovinyl)-3',5'-bis(2-(4-chlorophenoxy)-2-methylpropionyloxy-acetyl]-2'-deoxyuridine] | 1.47 | 1.75 | > 100 | – | – | – | – |
| CC(=O)OC(C)C(=O)OC[C@H]1O[C@@H](n2cc(/C=C/Br)c(=O)[nH]c2=O)C[C@@H]1O (stereo partly drawn) [Example 10, E-5-(2-Bromovinyl)-5'-(2-acetoxypropionyl)-2'-deoxyuridine] | 0.18 | 0.4 | > 100 | – | – | – | – |
| CC(C)(C)[Si](C)(C)O[C@@H](Cc1ccccc1)C(=O)OC[C@H]1O[C@@H](n2cc(/C=C/Br)c(=O)[nH]c2=O)C[C@@H]1OC(=O)[C@H](Cc1ccccc1)O[Si](C)(C)C(C)(C)C [Example 18, E-5-(2-Bromovinyl)-3',5'-bis(L-2-t-butyldimethylsilyloxy-3-penylpropionyl)-2'-deoxyuridine] | – | – | > 100 | > 100 µg/mL | – | – | – |
| O=C(OC[C@H]1O[C@@H](n2cc(/C=C/Br)c(=O)[nH]c2=O)C[C@@H]1OC(=O)[C@@H](O)Cc1ccccc1)[C@@H](O)Cc1ccccc1 [Example 19, E-5-(2-bromovinyl)-3', 5' -bis(L-2-hydroxy-3-phenylpropionyl)-2'-deoxyuridine] | 0.43 | 0.68 | > 100 | – | – | – | – |
| O=C(O[C@H]1C[C@H](n2cc(/C=C/Br)c(=O)[nH]c2=O)O[C@@H]1CO)C(Cl)c1ccccc1 (stereo partly drawn) [Example 20, E-5-(2-Bromovinyl)-3'-(2-chlorophenylacetyl)-2'-deoxyuridine] | 0.18 | 0.37 | > 100 | – | – | – | – |
| O=C(OC[C@H]1O[C@@H](n2cc(/C=C/Br)c(=O)[nH]c2=O)C[C@@H]1O)C(Cl)c1ccccc1 (stereo partly drawn) [Example 21] | 0.07 | 0.14 | > 100 | – | – | – | – |
| O=C(OC[C@H]1O[C@@H](n2cc(/C=C/Br)c(=O)[nH]c2=O)C[C@@H]1OC(=O)C(Cl)c1ccccc1)C(Cl)c1ccccc1 (stereo partly drawn) [Example 22] | 0.34 | 0.53 | > 100 | – | – | – | – |
| O=C(OC[C@H]1O[C@@H](n2cc(/C=C/Br)c(=O)[nH]c2=O)C[C@@H]1O)[C@@H](O)c1ccccc1 [Example 23, 5-(E-2-Bromovinyl)-2'-deoxy-5'-O-[(2S)-hydroxyphenylacetyl]uridine] | 0.16 | 0.34 | > 100 | – | – | – | – |
| O=C(OC[C@H]1O[C@@H](n2cc(/C=C/Br)c(=O)[nH]c2=O)C[C@@H]1OC(=O)[C@@H](O)c1ccccc1)[C@@H](O)c1ccccc1 [Example 24, 5-(E-2-Bromovinyl)-2'-deoxy-3', 5'-di-O-[(2S)-hydroxyphenylacetyl]uridine] | 0.45 | 0.75 | > 100 | – | – | – | – |
| CC(C)C[C@H](O)C(=O)OC[C@H]1O[C@@H](n2cc(/C=C/Br)c(=O)[nH]c2=O)C[C@@H]1O [Example 25, 5-(E-2-Bromovinyl)-2'-deoxy-5'-0-(L-2-hydroxy-4-methyl-pentanoyl)uridine] | 0.15 | 0.34 | > 100 | – | – | – | – |
| CC(C)C[C@H](O)C(=O)OC[C@H]1O[C@@H](n2cc(/C=C/Br)c(=O)[nH]c2=O)C[C@@H]1OC(=O)[C@@H](O)CC(C)C [Example 26, 5-(E-2-Bromovinyl)-2'-deoxy-3',5-di-O-(L-2-hydroxy-4-methylpentanoyl)uridine] | 0.16 | 0.29 | > 100 | – | – | – | – |
| COCC(=O)OC[C@H]1O[C@@H](n2cc(/C=C/Br)c(=O)[nH]c2=O)C[C@@H]1O [Example 27, 5-(E-2-Bromovinyl)-2'-deoxy-5'-O-(methoxyacetyl)uridine] | 0.12 | 0.3 | > 100 | – | – | – | – |
| COCC(=O)OC[C@H]1O[C@@H](n2cc(/C=C/Br)c(=O)[nH]c2=O)C[C@@H]1OC(=O)COC [Example 28, 5-(E-2-Bromovinyl)-2'-deoxy-3',5'-di-O-(methoxyacetyl)-uridine] | 0.17 | 0.36 | > 100 | – | – | – | – |
| O=C(OC[C@H]1O[C@@H](n2cc(/C=C/Br)c(=O)[nH]c2=O)C[C@@H]1O)[C@H](O)c1ccccc1 [Example 29] | 0.22 | 0.47 | > 100 | – | – | – | – |
| O=C(OC[C@H]1O[C@@H](n2cc(/C=C/Br)c(=O)[nH]c2=O)C[C@@H]1OC(=O)[C@H](O)c1ccccc1)[C@H](O)c1ccccc1 [Example 30] | 0.66 | 1.1 | > 100 | – | – | – | – |
| CC(C)C[C@H](O[Si](C)(C)C(C)(C)C)C(=O)OC[C@H]1O[C@@H](n2cc(/C=C/Br)c(=O)[nH]c2=O)C[C@@H]1O [Example 31, 5-(E-2-Bromovinyl)-5'-O-(L-2-t-butyldimethylsilyloxy-4-methylpentanoyl)-2'-deoxyurudine] | – | – | > 100 | 0.53 µg/mL and 940 nM | – | – | – |
| CC(C)C[C@H](O[Si](C)(C)C(C)(C)C)C(=O)OC[C@H]1O[C@@H](n2cc(/C=C/Br)c(=O)[nH]c2=O)C[C@@H]1OC(=O)[C@H](CC(C)C)O[Si](C)(C)C(C)(C)C [Example 32, 5-(E-2-Bromovilnyl)-3' ,5'-di-O-(L-2-t-butyldimethylsilyloxy-4-methylpentanoyl)-2'-deoxyuridirie] | – | – | > 100 | 4.9 µg/mL and 6.2 µM | – | – | – |
| CCC(Br)C(=O)OC[C@H]1O[C@@H](n2cc(/C=C/Br)c(=O)[nH]c2=O)C[C@@H]1O (stereo partly drawn) [Example 33, 5-(E-2-Bromovin^yl)-5'-0-(2-bromobutyryl)-2'-deoxyuridine] | 0.16 | 0.37 | > 100 | – | – | – | – |
| CCC(Br)C(=O)OC[C@H]1O[C@@H](n2cc(/C=C/Br)c(=O)[nH]c2=O)C[C@@H]1OC(=O)C(Br)CC (stereo partly drawn) [Example 34, 5-(E-2-Bromovinyl)-3'-5'-di-O-(2-bromobutyryl) -2'-deoxyuridine] | 0.2 | 0.32 | 100 | – | – | – | – |
| O=C(COc1ccccc1)OC[C@H]1O[C@@H](n2cc(/C=C/Br)c(=O)[nH]c2=O)C[C@@H]1O [Example 35, 5-(E-2-Bromovinyl)-2'-deoxy-5'-O-(phenoxyacetyl)uridine] | 0.18 | 0.38 | > 100 | – | – | – | – |
| O=C(COc1ccccc1)OC[C@H]1O[C@@H](n2cc(/C=C/Br)c(=O)[nH]c2=O)C[C@@H]1OC(=O)COc1ccccc1 [Example 36, 5-(E-2-Bromovinyl)-2'-deoxy-3',5'-di-0-(phenoxyacetyl)-uridine] | 0.57 | 0.95 | > 100 | – | – | – | – |
| E-5-(2-Bromovinyl)-3'-trimethylsilyl-5'-(4-dipropylsulphamoylbenzoyl- oxyacetyl)-2'-deoxyuridine [Example 14] | – | – | – | – | 0.32 | 0.48 | >100 |
| E-5-(2-Bromovinyl)-5'-(L-2-t-butyldimethylsilyloxy-3-phenylpropionyl)-2'-deoxyuridine [Example 16] | – | – | – | – | 0.63 | 0.68 | >100 |

Source: patent publication EP0097039A1, “5-(E-2-halovinyl)-2'-deoxyuridine derivatives, processes for their preparation, pharmaceutical compositions containing them, and their use in treating viral infections” (BEECHAM GROUP PLC, priority 1982, dated 1983)
